Source: US5874436A, “Triphenylalkyl antimicrobial agents” (priority 1997, dated 1999)
Values after ≈ are worked out from the molar mass of the structure shown.

Assays:
Kinase A and Spo0F = biological target: T1, Kinase A and Spo0F (Bacillus subtilis, UniProt P16497); test: Autophosphorylation of Kinase A and transphosphorylation of Spo0F assay (HPK in vitro assay); format: biochemical; conditions: inhibitor concentrations from 1 to 500 μM, [32P]ATP, phosphoimager
T1 construct: made in house; host or cells: E. coli (recombinant, overexpressing)
T1 sequence (P16497 1-606): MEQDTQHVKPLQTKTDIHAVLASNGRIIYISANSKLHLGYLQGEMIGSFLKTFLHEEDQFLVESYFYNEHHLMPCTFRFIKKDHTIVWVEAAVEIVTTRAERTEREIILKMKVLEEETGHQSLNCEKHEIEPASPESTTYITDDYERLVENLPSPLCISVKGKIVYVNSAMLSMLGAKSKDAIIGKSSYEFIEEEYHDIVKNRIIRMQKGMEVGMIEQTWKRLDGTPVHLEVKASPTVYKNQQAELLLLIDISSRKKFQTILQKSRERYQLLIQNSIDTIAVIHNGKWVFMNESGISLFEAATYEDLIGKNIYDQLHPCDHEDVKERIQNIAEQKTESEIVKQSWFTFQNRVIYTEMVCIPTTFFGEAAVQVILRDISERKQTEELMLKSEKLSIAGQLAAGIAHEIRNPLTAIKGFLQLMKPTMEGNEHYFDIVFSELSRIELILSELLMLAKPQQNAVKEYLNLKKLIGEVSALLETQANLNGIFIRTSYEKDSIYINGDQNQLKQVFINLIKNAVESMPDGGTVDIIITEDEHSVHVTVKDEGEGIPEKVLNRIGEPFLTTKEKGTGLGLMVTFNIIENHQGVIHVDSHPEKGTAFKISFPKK
Procedure: 1. Autophosphorylation of Kinase A and Transphosphorylation of Spo0F Assay
To study the effect of the compounds of the present invention on the signal transduction process in bacteria, the inhibiting effect of the compounds on the sporulation operon proteins Kinase A and Spo0F was examined. Specifically, the inhibition of autophosphorylation of Kinase A and the transphosphorylation of Spo0F was determined in the following assays. The Spo0F response regulator is the primary substrate for phosphorylation by the protein kinase, Kin A, involved in the sporulation process in bacteria. See D. Burbulys, K. A. Trach, J. A. Hoch, Cell, 64, 545-552 (1991). Spo0F and KinA were prepared from recombinant E. coli overexpressing the proteins (J. Cavanagh et al, Amino Acids, 6, 131-140 (1994) and references therein).
The following stock reagents were either prepared and used promptly or stored at the indicated temperature:
8 X Salts : 2M KCl (5 mL), 1M MgCl2 (800 mL), 1M CaCl2 (100 mL), 10 mg/mL phenylmethylsulfonyl fluoride (200 mL), 1 M dithioreitol (50 mL), 0.25M Na2 EDTA (32 mL) and H2 O mL (-20° C.)
5×Loading Dye: 0.5M TRIS-HCl-pH 6.8 (7.5 mL), 10% SDS (2 mL) 0.1% bromophenol blue (0.5 mL), 100% glycerol (3 mL) and 12.5 M 2-mercaptoethanol (0.3 mL)
1-1.3 mg/mL KinA:15 mM TRIS-HCl, pH 8.0, 6 mM KCl; 4 mM 2-mercaptoethanol; 40% glycerol (-20° C.)
1 mg/mL Spo0F: 17.5 mM TRIS-HCl, pH 8.0; 0.7 mM KCl; 0.7 mM MgCl2; 0.7 mM CaCl2; 5mM 2-mercaptoethanol; 30% Glycerol (-20° C.)
5% Stacking Gel: 40% 29:1 acrylamide:bis acrylamide (1.25 mL), 0.5M TRIS-HCl, pH 6.8 (2.5 mL), 10% SDS (0.1 mL), D-H2 O (6.15 mL) 10% ammonium persulfate (100 mL) and TEMED (25 mL) SDS Running Buffer: TRIS-BASE (3.02 g), glycine (14.4 g) SDS (1 g), D-H2 O (to 1L)
The reaction mixture was prepared from 8×Salts (87 μL), 1M TRIS, pH 8 (118 μL), 50% glycerol (63 μL), Spo0F (14.1 μL) and KinA (7.0 μL). Microcentrifuge tubes were charged with the reaction mixture (18.5 μL) and a 1.0 mM solution of the test compound in 5% DMSO (18.5 μL), and incubated for 15 min on ice. 100 mM ATP solution (3.0 μl, containing 625 μCi [^32 P]ATP) was added, and the mixture left for 10 minutes at room temperature. The reaction was quenched with 5×loading dye (10 μL per tube) and the samples were loaded on a prepared 5% Stacking Gel, or stored on dry ice until ready for use. The prepared wells were filled with SDS Running Buffer, samples were loaded into the wells, and 80 volts were applied to the gel until the dye front reached the bottom of the stacking gel. The voltage was then increased to 250 volts until electrophoresis was complete. Radioactive bands in the gel corresponding to phosphorylated KinA and Spo0F were imaged and quantitated with a phosphoimager.
If either enzyme was inhibited (as evidenced by the absence of labelled protein in the developed gel), an IC50 was calculated by running the assay with a range of inhibitor concentrations from 1 to 500 μM. After electrophoresis of the reaction mixtures, percent inhibition was determined by measuring the concentration of radioactive phosphorus with a phosphoimager and calculating the values using a software program (BioRad Molecular Analyst).

selected microorganisms = test: MIC antimicrobial assay (NCCLS microdilution broth method); format: cell-based
Procedure: 2. MIC Anitimicrobial Assay
The in vitro antimicrobial activity of the compounds was determined by the microdilution broth method following the test method from the National Committee for Laboratory Standards (NCCLS). This method is described in the NCCLS Document M7-A2, Vol.10, No.8 "Methods for Dilution Antimicrobial Susceptibility Test for Bacteria that Grow Aerobically--Second Edition."
In this method two-fold serial dilutions of drug in cation supplemented Mueller-Hinton broth are added to wells in microdilution trays. The test organisms are prepared by adjusting the turbidity of actively growing broth cultures so that the final concentration of test organism after it is added to the wells is approximately 5×10^4 CFUs/well).
Following inoculation of the microdilution trays, the trays are incubated at 35° C. for 16-20 hours and then read. […] The amount of growth in the wells containing the test compound is compared with the amount of growth in the growth-control wells (no test compound) used in each tray.

Structure (SMILES) | IC50 (Kinase A and Spo0F) [µM] | MIC (selected microorganisms) [µg/mL]
NCc1ccc2cc(OCCC(c3ccccc3)(c3ccccc3)c3ccccc3)ccc2c1 [Example 20, 6-(3,3,3-Triphenylpropoxy)-2-naphthylmethylamine] | 75 | 4 to 8 (≈ 9.02 to 18 µM)
O=C(O)/C=C/c1ccc(OCCC(c2ccccc2)(c2ccccc2)c2ccccc2)cc1 [Example 22, trans 4-(3,3,3-Triphenylpropoxy)cinnamic acid] | 71 | 4 to 64 (≈ 9.21 to 147 µM)
O=C(Cc1ccc(O)cc1)OCCC(c1ccccc1)(c1ccccc1)c1ccccc1 [Example 23, 3,3,3-Triphenylpropyl 2-(4-hydroxyphenyl)acetate] | 170 | > 128
O=C(CCc1ccc(O)cc1)OCCC(c1ccccc1)(c1ccccc1)c1ccccc1 [Example 24, 3,3,3-Triphenylpropyl 3-(4-hydroxyphenyl)propionate] | 160 | > 128
O=C(/C=C/c1ccc(OCCC(c2ccccc2)(c2ccccc2)c2ccccc2)cc1)NCCO [Example 25, trans N-(2-Hydroxyethyl)-4-(3,3,3-triphenylpropoxy)-cinnamide] | 150 | > 128
c1ccc(C(CCOc2ccc(CCC3=NCCCO3)cc2)(c2ccccc2)c2ccccc2)cc1 [Example 26, 4,5-Dihydro-2-{2-[4-(3,3,3-triphenylpropoxy)-phenyl}ethyl}-1,3-oxazine] | 43 | 8 to 16 (≈ 16.8 to 33.6 µM)
c1ccc(C(CCOc2ccc(CCc3nnn[nH]3)cc2)(c2ccccc2)c2ccccc2)cc1 [Example 27, 5-{2-[4-(3,3,3-Triphenylpropoxy)phenyl]ethyl}-1H-tetrazole] | 11 | 8 to 64 (≈ 17.4 to 139 µM)
C[N+](C)(Cc1ccccc1)Cc1ccc(OCCC(c2ccccc2)(c2ccccc2)c2ccccc2)cc1.[Cl-] [Example 28, N-Benzyl-N,N-dimethyl-[4-(3,3,3-triphenylpropoxy)-phenyl]methyl ammonium chloride] | 13 | 2
[Cl-].c1ccc(C(CCOc2ccc(C[n+]3ccccc3)cc2)(c2ccccc2)c2ccccc2)cc1 [Example 29, 1-{[4-(3,3,3-triphenylpropoxy)-phenyl]methyl}pyridinium chloride] | 6 | 2 to 4
Cc1n(C)cc[n+]1Cc1ccc(OCCC(c2ccccc2)(c2ccccc2)c2ccccc2)cc1.[Cl-] [Example 30, 1,2-Dimethyl-3-{[4-(3,3,3-triphenylpropoxy)-phenyl]methyl}imidazolium chloride] | 28 | 2 to 8
O=C(O)C(=Cc1ccc(OCCC(c2ccccc2)(c2ccccc2)c2ccccc2)cc1)C(=O)O [Example 31, [4-(3,3,3-Triphenylpropoxy)benzylidene]malonic acid] | 54 | > 128
c1ccc(C(CCOc2ccc(Cc3nnn[nH]3)cc2)(c2ccccc2)c2ccccc2)cc1 [Example 32, 5-[4-(3,3,3-Triphenylpropoxy)phenyl]methyl-1H-tetrazole] | 19 | 8 to 64 (≈ 17.9 to 143 µM)
C[N+](C)(C)Cc1ccc(OCCC(c2ccccc2)(c2ccccc2)c2ccccc2)cc1.[Cl-] [Example 33, N,N,N-Trimethyl-[4-(3,3,3-triphenylpropoxy)phenyl]methylammonium chloride] | 29 | 4 to 8
O=C(O)Cc1cccc(OCCC(c2ccccc2)(c2ccccc2)c2ccccc2)c1 [Example 34, 2-[3-(3,3,3-Triphenylpropoxy)phenyl]acetic acid] | 38 | 32 (≈ 75.7 µM)
O=C(O)CCc1cccc(OCCC(c2ccccc2)(c2ccccc2)c2ccccc2)c1 [Example 35, 3-[3-(3,3,3-Triphenylpropoxy)phenyl]propionic acid] | 42 | 4 to 128 (≈ 9.16 to 293 µM)
O=C(O)Cc1ccccc1OCCC(c1ccccc1)(c1ccccc1)c1ccccc1 [Example 36, 2-(3,3,3-Triphenylpropoxy)phenylacetic acid] | 45 | 16 to 32 (≈ 37.9 to 75.7 µM)
